Columns and labels:
[1] = Serum fatty acid metabolomics (UPLC-MS/MS), feeding study
Experimental: This study examined global metabolic profiles in six dolphins (“Group A dolphins”). The dolphins lived in netted enclosures within San Diego Bay. The dolphins started on a 100% capelin diet. Group A dolphins were fed one-third of their daily diet in the morning after their routine overnight fast and 2h postprandial, in-water, and trained blood samples were drawn (typically near 10:00 a.m.). An additional four dolphins (“Group C dolphins”) were fed the capelin diet.
Two hour post-prandial samples were collected from the dolphins at baseline (week 0) and at four time points following the switch to the modified diet: 6, 12, 18, and 24 weeks. Routine monthly samples collected from four reference dolphins that were housed in the same environment as the Group A dolphins were assessed for glucose, triglycerides, ferritin, and percent serum fatty acids.
Sample Preparation: Samples were prepared using the automated MicroLab STAR® system from Hamilton Company. Several recovery standards were added prior to the first step in the extraction process for QC purposes. Proteins were precipitated with methanol under vigorous shaking for 2 min (Glen Mills GenoGrinder 2000) followed by centrifugation. The resulting extract was divided into five fractions: two for analysis by two separate reverse phase (RP)/UPLC-MS/MS methods with positive ion mode electrospray ionization (ESI), one for analysis by RP/UPLC-MS/MS with negative ion mode ESI, one for analysis by HILIC/UPLC-MS/MS with negative ion mode ESI, and one sample was reserved. Samples were placed briefly on a TurboVap® (Zymark) to remove the organic solvent. The sample extracts were stored overnight under nitrogen before preparation for analysis.
Ultrahigh Performance Liquid Chromatography-Tandem Mass Spectroscopy (UPLC-MS/[…]): Each of four methods utilized a Waters ACQUITY ultra-performance liquid chromatography (UPLC) and a Thermo Scientific Q-Exactive high resolution/accurate mass spectrometer interfaced with a heated electrospray ionization (HESI-II) source and Orbitrap mass analyzer operated at 35,000 mass resolution. A sample extract was dried, then reconstituted in solvents compatible to each of the four methods. Each reconstitution solvent contained a series of standards at fixed concentrations to ensure injection and chromatographic consistency. A first aliquot was analyzed using acidic positive ion conditions, chromatographically optimized for more hydrophilic compounds. In this method, the extract was gradient eluted from a C18 column (Waters UPLC BEH C18-2. 1×100 mm, 1.7 μm) using water and methanol, containing 0.05% perfluoropentanoic acid (PFPA) and 0.1% formic acid (FA). A second aliquot was also analyzed using acidic positive ion conditions, however it was chromatographically optimized for more hydrophobic compounds. In this method, the extract was gradient eluted from the same afore mentioned C18 column using methanol, acetonitrile, water, 0.05% PFPA and 0.01% FA and was operated at an overall higher organic content. A third aliquot was analyzed using basic negative ion optimized conditions using a separate dedicated C 18 column. The basic extracts were gradient eluted from the column using methanol and water, however with 6.5 mM Ammonium Bicarbonate at pH 8. […] The MS analysis alternated between MS and data-dependent MSn scans using dynamic exclusion. The scan range varied slighted between methods but covered 70-1000 m/z.
Data Extraction and Compound Identification: Raw data was extracted, peak-identified and QC processed using Metabolon's hardware and software. The systems were based on a web-service platform utilizing Microsoft's .NET technologies, which ran on high-performance application servers and fiber-channel storage arrays in clusters to provide active failover and load-balancing. Compounds were identified by comparison to library entries of purified standards or recurrent unknown entities.

[2] = Serum fatty acid profile (% serum fatty acids, GC/MS), feeding study; assay type: in vivo, bottlenose dolphin (Tursiops truncatus)
Experimental: The dolphins started on a 100% capelin diet.
Changes in percent serum for the targeted fatty acids (C17:0, C20:4n6, and C22:0), as well as insulin, glucose, triglycerides, iron, transferrin saturation, and ferritin, were assessed among feeding study dolphins during weeks 3, 6, 12, 18 and 24 and compared to week 0 using pairwise comparison t-tests. Erythrocyte membrane fatty acids were measured during weeks 3, 6, 12, 18, and 24. Serum ferritin in Group A dolphins increased.
Blood was collected into BD Vacutainer serum separator tubes (for insulin, iron, ferritin, serum fatty acids profile, and serum chemistry), EDTA BD Vacutainer blood collection tubes (for erythrocyte fatty acid profile), and Lithium Heparin BD Vacutainer blood collection tubes (for plasma chemistry, including triglycerides). Blood tubes were centrifuged at 3000 rpm for 10 minutes within 30-60 minutes of collection and chilled during processing until shipment. Remaining serum/plasma was transferred to cryovials and stored at −80° C. until shipment on dry ice via overnight courier to the reference laboratories.
Serum and red blood cell membrane fatty acid profiles were performed by the Genetics Laboratories at the Kennedy Krieger Institute. Fatty acids were analyzed by capillary gas chromatography/mass spectrometry of pentaflourobenzyl bromide fatty acid derivatives using an AT-Silar-100 column (Grace, Columbia, Md. 21044) as previously described. For red blood cells only, the lipids were extracted with hexane:isopropanol before analysis. Each run was required to pass clinical laboratory quality control before the data were released. CV % were typically under 10%. Percent fatty acids in serum was used as a sturdier index to help reduce potential variability in serum among study dolphins. Iron, TIBC, and ferritin were analyzed at the Kansas State Veterinary Diagnostic Laboratory by colorimetric analysis on the Roche Cobas Mira (Roche Diagnostics, Indianapolis, Ind. 46250) per the manufacturer's protocol. Plasma triglycerides and glucose were directly measured using the Roche Cobas 8000 system (Roche Diagnostics, Indianapolis, Ind. 46250) per the manufacturers' protocol. Glucose was measured photometrically at the Animal Health Diagnostic Center at Cornell University on the Roche Diagnostics Modular Analytics P Module clinical chemistry analyzer (Roche Diagnostics, Indianapolis, Ind. 46250). Total insulin was analyzed at ARUP Laboratories by ultrafiltration/quantitative chemiluminescent immunoassay on the Siemens ADVIA Centaur Immunoassay system (Siemens Medical Solutions USA, Inc., Malvern, Pa. 19355).

[3] = bottlenose dolphin (Tursiops truncatus), in vivo, 6 weeks
[4] = bottlenose dolphin (Tursiops truncatus), in vivo, 12 weeks
[5] = bottlenose dolphin (Tursiops truncatus), in vivo, 18 weeks
[6] = bottlenose dolphin (Tursiops truncatus), in vivo, 24 weeks
[7] = bottlenose dolphin (Tursiops truncatus), in vivo, 3 weeks
[8] = Group A dolphins, modified diet, proportional to value at outset of study

serum concentration 6 wk / 0 wk [1, 3] | serum concentration 12 wk / 0 wk [1, 4] | serum concentration 18 wk / 0 wk [1, 5] | serum concentration 24 wk / 0 wk [1, 6] | Serum fatty acids (%) [2, 7] | Serum fatty acids (%) [2, 3] | Serum fatty acids (%) [2, 4] | Serum fatty acids (%) [2, 5] | Serum fatty acids (%) [2, 6] | serum concentration 6 wk / 0 wk [1, 8] | serum concentration 12 wk / 0 wk [1, 8] | serum concentration 18 wk / 0 wk [1, 8] | serum concentration 24 wk / 0 wk [1, 8] | serum levels compared to week 0 ([2]; in vivo) | Structure (SMILES) | Serum fatty acids (%) ([2]; Group A dolphins, modified diet, week 3) | Serum fatty acids (%) ([2]; Group A dolphins, modified diet, week 6) | Serum fatty acids (%) ([2]; Group A dolphins, modified diet, week 12) | Serum fatty acids (%) ([2]; Group A dolphins, modified diet, week 18) | Serum fatty acids (%) ([2]; Group A dolphins, modified diet, week 24)
1.19 | 1.62 | 1.5 | 1.19 | 6 ± 2% | 7 ± 2% | 10 ± 4% | 10 ± 3% | 10 ± 3% | – | – | – | – | – | CCCCC/C=C\C/C=C\C/C=C\C/C=C\CCCC(=O)O [Arachidonic acid, (5Z,8Z,11Z,14Z)-icosa-5,8,11,14-tetraenoic acid] | – | – | – | – | –
– | – | – | – | 0.5 ± 0.2% | 0.5 ± 0.1% | 0.7 ± 0.3% | 0.8 ± 0.4% | 0.7 ± 0.2% | 1.25 | 1.65 | 1.72 | 1.21 | higher | CCCCCCCCCCCCCCCCC(=O)O [Heptadecanoic acid, heptadecanoic acid] | – | – | – | – | –
– | – | – | – | – | – | – | – | – | – | – | – | – | – | CCCCCCCCCCCCCCCCCCCCCC(=O)O [Behenic acid] | 0.21 ± 0.06% | 0.25 ± 0.07% | 0.28 ± 0.06% | 0.26 ± 0.04% | 0.29 ± 0.04%
